Source: patent publication US20230072421A1, “TARGETED RADIOPHARMACEUTICALS FOR THE DIAGNOSIS AND TREATMENT OF PROSTATE CANCER” (Bayer AS, priority 2019, published 2023)

Assay: Biodistribution study in LNCaP tumor-bearing mice (Th227 counted in organs)
Assay type: in vivo, SCID mice
In short: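 SCID mice bearing testosterone pellets and subcutaneous LNCaP flank tumors (~50 mm^2) received a single intravenous dose of the radioactive compound. At set time points, n=3 animals were sacrificed, and organs were removed, weighed and counted for Th227 on a Germanium detector.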

[1] = 0.25 h, 500 kBq/kg, study b2999

Question: Which “Th-227 in Blood” value [1] does the source give for `O=C([O-])CN1CCN(CC(=O)[O-])CCN(CC(=O)NCC2CCC(C(=O)NC(Cc3ccc4ccccc4c3)C(=O)NCCCCC(NC(=O)NC(CCC(=O)O)C(=O)O)C(=O)O)CC2)CCN(CC(=O)[O-])CC1.[227Th+4]` [Example 1-B-227Th, [^227Th]Thorium (3S,10S,14S)-3-[(naphthalen-2-yl)methyl]-1,4,12-trioxo-1-{(1r,4S)-4-[(2-{4,7,10-tris[(carboxy-kappaO)methyl]-1,4,7,10-tetraazacyclododecan-1-yl-kappa^4N^1,N^4,N^7,N^10}acetamido)methyl]cyclohexyl}-2,5,11,13-tetraazahexadecane-10,14,16-tricarboxylate] here?
Answer: 1.68 % ID Th-227/g organ

Question: What about the “Th-227 in Femur and tibia” value [1] of the same compound?
Answer: 1.31 % ID Th-227/g organ

Question: What about the “Th-227 in Kidneys” value [1] of the same compound?
Answer: 114.94 % ID Th-227/g organ

Question: And the “Th-227 in Liver” value [1]?
Answer: 0.92 % ID Th-227/g organ

Question: And the “Th-227 in Salivary gland” value [1]?
Answer: 10.22 % ID Th-227/g organ

Question: And the “Th-227 in Spleen” value [1]?
Answer: 6.51 % ID Th-227/g organ

Question: And the “Th-227 in Tumor” value [1]?
Answer: 8.41 % ID Th-227/g organ

Question: And the “Th-227 in prostate” value [1]?
Answer: 8.53 % ID Th-227/g organ

Question: And the Th-227 in Blood (0.25 h, 1500 kBq/kg)?
Answer: 6.68% ID Th-227/g organ

Question: What about the Th-227 in Liver (0.25 h, 1500 kBq/kg) of the same compound?
Answer: 2.01% ID Th-227/g organ

Question: And the Th-227 in Spleen (0.25 h, 1500 kBq/kg)?
Answer: 11.41% ID Th-227/g organ

Question: And the Th-227 in Tumor (0.25 h, 1500 kBq/kg)?
Answer: 6.89% ID Th-227/g organ

Question: And the Th-227 in bone (0.25 h, 1500 kBq/kg)?
Answer: 2.42% ID Th-227/g organ

Question: And the Th-227 in brain (0.25 h, 1500 kBq/kg)?
Answer: 0.27% ID Th-227/g organ

Question: And the Th-227 in kidney (0.25 h, 1500 kBq/kg)?
Answer: 36.39% ID Th-227/g organ

Question: And the “Th-227 in large intestine” value (0.25 h, 1500 kBq/kg)?
Answer: 1.08% ID Th-227/g organ

Question: What about the Th-227 in lung (0.25 h, 1500 kBq/kg) of the same compound?
Answer: 4.42% ID Th-227/g organ

Question: And the Th-227 in muscle (0.25 h, 1500 kBq/kg)?
Answer: 1.06% ID Th-227/g organ

Question: And the Th-227 in prostate (0.25 h, 1500 kBq/kg)?
Answer: 7.80% ID Th-227/g organ

Question: What about the “Th-227 in salivary glands” value (0.25 h, 1500 kBq/kg) of the same compound?
Answer: 2.81% ID Th-227/g organ

Question: And the “Th-227 in small intestine” value (0.25 h, 1500 kBq/kg)?
Answer: 1.14% ID Th-227/g organ

Question: And the “Th-227 in Blood” value (1 hr, 500 kBq/kg, study b2999)?
Answer: 0.37 % ID Th-227/g organ

Question: What about the “Th-227 in Femur and tibia” value (1 hr, 500 kBq/kg, study b2999) of the same compound?
Answer: 0.78 % ID Th-227/g organ

Question: And the “Th-227 in Kidneys” value (1 hr, 500 kBq/kg, study b2999)?
Answer: 150.81 % ID Th-227/g organ

Question: What about the “Th-227 in Liver” value (1 hr, 500 kBq/kg, study b2999) of the same compound?
Answer: 0.41 % ID Th-227/g organ

Question: What about the “Th-227 in Salivary gland” value (1 hr, 500 kBq/kg, study b2999) of the same compound?
Answer: 17.15 % ID Th-227/g organ

Question: What about the “Th-227 in Spleen” value (1 hr, 500 kBq/kg, study b2999) of the same compound?
Answer: 6.04 % ID Th-227/g organ

Question: And the “Th-227 in Tumor” value (1 hr, 500 kBq/kg, study b2999)?
Answer: 10.87 % ID Th-227/g organ

Question: And the “Th-227 in prostate” value (1 hr, 500 kBq/kg, study b2999)?
Answer: 9.05 % ID Th-227/g organ

Question: What about the Th-227 in Blood (1 hr, 1500 kBq/kg) of the same compound?
Answer: 3.85% ID Th-227/g organ

Question: What about the Th-227 in Liver (1 hr, 1500 kBq/kg) of the same compound?
Answer: 1.99% ID Th-227/g organ

Question: And the Th-227 in Spleen (1 hr, 1500 kBq/kg)?
Answer: 9.16% ID Th-227/g organ

Question: And the Th-227 in Tumor (1 hr, 1500 kBq/kg)?
Answer: 7.34% ID Th-227/g organ

Question: What about the Th-227 in bone (1 hr, 1500 kBq/kg) of the same compound?
Answer: 5.16% ID Th-227/g organ

Question: What about the Th-227 in brain (1 hr, 1500 kBq/kg) of the same compound?
Answer: 0.07% ID Th-227/g organ

Question: What about the Th-227 in kidney (1 hr, 1500 kBq/kg) of the same compound?
Answer: 38.11% ID Th-227/g organ

Question: What about the “Th-227 in large intestine” value (1 hr, 1500 kBq/kg) of the same compound?
Answer: 0.57% ID Th-227/g organ

Question: And the Th-227 in lung (1 hr, 1500 kBq/kg)?
Answer: 2.88% ID Th-227/g organ

Question: And the Th-227 in muscle (1 hr, 1500 kBq/kg)?
Answer: 0.76% ID Th-227/g organ

Question: And the Th-227 in prostate (1 hr, 1500 kBq/kg)?
Answer: 1.15% ID Th-227/g organ

Question: What about the “Th-227 in salivary glands” value (1 hr, 1500 kBq/kg) of the same compound?
Answer: 1.62% ID Th-227/g organ

Question: And the “Th-227 in small intestine” value (1 hr, 1500 kBq/kg)?
Answer: 0.84% ID Th-227/g organ

Question: What about the Th-227 in Blood (4 hr, 1500 kBq/kg) of the same compound?
Answer: 1.05% ID Th-227/g organ

Question: And the Th-227 in Liver (4 hr, 1500 kBq/kg)?
Answer: 1.32% ID Th-227/g organ

Question: What about the Th-227 in Spleen (4 hr, 1500 kBq/kg) of the same compound?
Answer: 6.17% ID Th-227/g organ

Question: And the Th-227 in Tumor (4 hr, 1500 kBq/kg)?
Answer: 13.09% ID Th-227/g organ

Question: What about the Th-227 in bone (4 hr, 1500 kBq/kg) of the same compound?
Answer: 7.25% ID Th-227/g organ

Question: And the Th-227 in brain (4 hr, 1500 kBq/kg)?
Answer: 0.04% ID Th-227/g organ

Question: What about the Th-227 in kidney (4 hr, 1500 kBq/kg) of the same compound?
Answer: 32.13% ID Th-227/g organ

Question: What about the “Th-227 in large intestine” value (4 hr, 1500 kBq/kg) of the same compound?
Answer: 0.76% ID Th-227/g organ

Question: What about the Th-227 in lung (4 hr, 1500 kBq/kg) of the same compound?
Answer: 1.55% ID Th-227/g organ

Question: What about the Th-227 in muscle (4 hr, 1500 kBq/kg) of the same compound?
Answer: 0.37% ID Th-227/g organ

Question: What about the Th-227 in prostate (4 hr, 1500 kBq/kg) of the same compound?
Answer: 1.06% ID Th-227/g organ

Question: What about the “Th-227 in salivary glands” value (4 hr, 1500 kBq/kg) of the same compound?
Answer: 0.72% ID Th-227/g organ

Question: And the “Th-227 in small intestine” value (4 hr, 1500 kBq/kg)?
Answer: 0.74% ID Th-227/g organ

Question: And the “Th-227 in Blood” value (6 hr, 500 kBq/kg, study b2999)?
Answer: 0.06 % ID Th-227/g organ

Question: And the “Th-227 in Femur and tibia” value (6 hr, 500 kBq/kg, study b2999)?
Answer: 0.31 % ID Th-227/g organ

Question: And the “Th-227 in Kidneys” value (6 hr, 500 kBq/kg, study b2999)?
Answer: 67.34 % ID Th-227/g organ

Question: What about the “Th-227 in Liver” value (6 hr, 500 kBq/kg, study b2999) of the same compound?
Answer: 0.19 % ID Th-227/g organ

Question: What about the “Th-227 in Salivary gland” value (6 hr, 500 kBq/kg, study b2999) of the same compound?
Answer: 2.84 % ID Th-227/g organ
